# Experimental data published in US5616684A, “Cyclic peptides and use thereof” (priority 1991, dated 1997).
# pIC50: −log10 of the molar value. Non-standard residues stand in square brackets, D forms with d. Residues, ends and D or L forms follow the SMILES beside them. 1Nal = N[C@@H](Cc1cccc2ccccc12)C(=O)O; d(aIle) = CC[C@H](C)[C@@H](N)C(=O)O; Hyp = O=C(O)[C@@H]1C[C@@H](O)CN1; Pip = O=C(O)[C@@H]1CCCCN1; Aze = O=C(O)[C@@H]1CCN1
# What was measured:
# [1] = target: T1, endothelin receptor B (ETB) (Bos taurus, UniProt P28088); assay: Assay of Affinity for Receptor (2): Binding Activity on ETB Receptor *1; set-up: key: relative specific activity, Example 8 compound = 100; conditions: specific activity, binding activity of the compound of Example 8 taken as 100; bovine brain membrane fraction, 125I labeled endothelin-1, 25° C., 1 hour
# T1 construct: A membrane fraction prepared from the bovine brain; from tissue; host or cells: bovine brain membrane fraction
# T1 sequence (P28088 27-441): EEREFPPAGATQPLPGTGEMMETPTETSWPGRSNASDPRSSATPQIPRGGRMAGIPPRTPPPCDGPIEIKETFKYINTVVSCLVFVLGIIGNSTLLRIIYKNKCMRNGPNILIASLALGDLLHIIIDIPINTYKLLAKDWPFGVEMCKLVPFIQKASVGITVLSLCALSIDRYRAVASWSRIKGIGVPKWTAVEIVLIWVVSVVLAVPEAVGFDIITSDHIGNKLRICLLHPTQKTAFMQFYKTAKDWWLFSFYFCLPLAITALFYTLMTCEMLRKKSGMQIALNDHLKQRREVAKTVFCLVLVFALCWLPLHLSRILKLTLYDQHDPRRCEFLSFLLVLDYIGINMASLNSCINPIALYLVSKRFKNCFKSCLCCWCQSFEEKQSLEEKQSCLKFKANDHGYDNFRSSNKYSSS
# Protocol: Assay of Affinity for Receptor (2) . . . Binding Activity on ETB Receptor *1
# A membrane fraction prepared from the bovine brain was diluted to 0.15 mg/ml by using a buffer solution for assay, and 100 μl of the resulting suspension of the membrane fraction was poured into each assay tube to use for assay. To this suspension of the membrane fraction was added 2 μl of 5 nM ^125 I labeled endothelin-1 solution. Further, 3 μl of a test peptide solution was added thereto, followed by incubation at a temperature of 25° C. for 1 hour. Then, the resulting suspension was diluted with 900 μl of the buffer solution for assay cooled with ice, and thereafter separated into a supernatant and a precipitate by centrifugation at 12,000×g for 10 minutes. Cell membranes and an endothelin receptor B (ETB) embedded therein were contained in the precipitate, and radioactive iodine-labeled endothelin bound to the receptor was also recovered in the precipitate. Accordingly, the amount of radioactive iodine-labeled endothelin bound to the endothelin receptor B (ETB) was determined by measuring the amount of radioactive iodine contained in the precipitate with a gamma-ray counter. The numerical value of ETB shown in Table 1 is the value of specific activity, taking the binding activity of the compound of Example 8 on the receptor B as 100.
# [2] = test system: ETB receptor (guinea pig kidney crude receptor membrane fraction); assay: ETB Radio Receptor Assay *2; format: binding; conditions: relative activity (Example 8 given as 100), 125I-endothelin-1, 37° C., 90 minutes
# Protocol: ETB Radio Receptor Assay *2
# In the endothelin radio receptor assay, guinea pigs' kidneys were used. Guinea pigs (Std Hartrey, male 250 g, Japan SLC Ltd.) were made to have a cerebral concussion and sacrificed by bleeding from carotid arteries to pick up the kidneys and removed fat therefrom to prepare the kidneys. The obtained kidneys were sliced and homogenized by politron homogenizer in 20 ml of 50 mM Tris-HCl buffer [pH 7.4; 20 mM NaHCO3, 0.1 mM PMSF (Phenylmethylsulfonyl Fluoride), 1 mM EDTA (Ethylenediaminetetraacetic acid)] per one kidney. The homogenized kidney was applied to a centrifugation at 1,000×g for 15 minutes and the supernatant was further applied to a centrifugation for 20 minutes at 30,000×g. The resulting precipitate was twice washed with 50 mM Tris-HCl buffer (pH 7.4) containing 0.1 mM PMSF, 1 mM EDTA. The resultant was stored at -80 ° C. as a crude receptor membrane fraction and was used as the suspension in the following buffer when necessary.
# 740 Bq of ^125 I-endothelin-1 (81.4 TBq/mmol, Du Pont, USA) as a radio ligand, the crude membrane fraction (2.1 μg protein) and samples were added to the following buffer. The reaction was performed at 37° C., for 90 minutes in 0.2 ml of the buffer [50 mM Tris-HCl buffer (pH 7.4) containing 0.1 mM PMSF, 1 mM EDTA, 0.2% bovine serum albumin].
# The reaction was stopped by fast filtration on a glass filter (GF/B, Wattman, USA) by Cell Harvestor (290 PHD, Cambridge-Technology, Great Britain), and the filter was three times washed with 50 mM Tris-HCl buffer (pH 7.4). Radio activity remained on the filter was assayed by a gamma counter.
# [3] = target: T2, endothelin receptor A (ETA) (Sus scrofa, UniProt Q29010); assay: Assay of Affinity for Receptor (1): Binding Activity on ETA Receptor; set-up: key to Binding Activity on ET Receptor (R. act.) ETA: relative binding activity; reference cyclic pentapeptide = 1.0; conditions: porcine heart membrane fraction; for Binding Activity on ET Receptor (R. act.) ETA: specific activity, binding activity of cyclo[-D-Glu-Ala-D-aIle-Leu-D-Trp-] taken as 1.0, 125I-labeled endothelin-1, 25° C., 1 hour
# T2 construct: A membrane fraction prepared from the porcine heart; from tissue; host or cells: porcine heart membrane fraction
# T2 sequence (Q29010 21-427): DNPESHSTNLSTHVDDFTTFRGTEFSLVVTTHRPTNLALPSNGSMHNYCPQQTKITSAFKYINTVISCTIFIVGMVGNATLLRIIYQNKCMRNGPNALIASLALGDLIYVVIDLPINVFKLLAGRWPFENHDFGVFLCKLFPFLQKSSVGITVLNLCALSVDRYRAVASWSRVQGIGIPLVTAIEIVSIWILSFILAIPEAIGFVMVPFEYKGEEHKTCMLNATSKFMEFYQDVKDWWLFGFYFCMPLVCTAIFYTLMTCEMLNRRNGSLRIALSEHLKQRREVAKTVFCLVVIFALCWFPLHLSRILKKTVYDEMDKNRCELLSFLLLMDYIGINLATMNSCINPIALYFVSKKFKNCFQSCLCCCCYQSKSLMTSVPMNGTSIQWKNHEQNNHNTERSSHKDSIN
# Protocol: Assay of Affinity for Receptor (1) . . . Binding Activity on ETA Receptor
# A membrane fraction prepared from the porcine heart was diluted to 0.15 mg/ml by using a buffer solution for assay, and 100 μl of the resulting suspension of the membrane fraction was poured into each assay tube to use for assay. To this suspension of the membrane fraction was added 2 μl of 5 nM ^125 I-labeled endothelin-1 solution. Further, 3 μl of a test peptide solution was added thereto, followed by incubation at a temperature of 25° C. for 1 hour. Then, the resulting suspension was diluted with 900 μl of the buffer solution for assay cooled with ice, and thereafter separated into a supernatant and a precipitate by centrifugation at 12,000×g for 10 minutes. Cell membranes and an endothelin receptor A (ETA) embedded therein were contained in the precipitate, and radioactive iodine-labeled endothelin combined with the receptor was also recovered in the precipitate. Accordingly, the amount of radioactive iodine-labeled endothelin combined with the endothelin receptor A (ETA) was determined by measuring the amount of radioactive iodine contained in the precipitate with a gamma-ray counter. The cyclic pentapeptide described in Japanese Patent Application No. 2-413828/1990, cyclo[-D-Glu-Ala-D-aIle-Leu-D-Trp-], was used as a control compound. The numerical value of ETA shown in Table 1 is the value of specific activity, taking the binding activity of this cyclic pentapeptide on the receptor A as 1.0. The binding activity (IC50) of this cyclic pentapeptide on the ETA receptor is 2×10^-6 M.
SMILES,Binding Activity on ET Receptor (R. act.) ET8 *1 [1],Binding Activity on ET Receptor (R. act.) ET8 *2 [2],Binding Activity on ET Receptor (R. act.) ETA [3],pIC50 ([3]; 125I-labeled endothelin-1)
"CC(C)C[C@@H]1NC(=O)[C@@H](CC(C)C)NC(=O)[C@H](CC(=O)O)NC(=O)[C@H](Cc2c[nH]c3ccccc23)NC(=O)[C@@H](CC(=O)O)NC(=O)[C@@H](Cc2c[nH]c3ccccc23)NC1=O [Example 8, cyclo[-D-Asp-Trp-Asp-D-Leu-Leu-D-Trp-]] (cyclo(D[dL]L[dW][dD]W))",100,100,76,–
"CC(C)C[C@@H]1NC(=O)[C@@H](CC(C)C)NC(=O)[C@H](CC(=O)O)NC(=O)[C@@H]2CCCN2C(=O)[C@@H](CC(=O)O)NC(=O)[C@@H](Cc2c[nH]c3ccccc23)NC1=O [Example 9, cyclo[-D-Asp-Pro-Asp-D-Leu-Leu-D-Trp-]] (cyclo(D[dL]L[dW][dD]P))",140,67,56,–
"CC(C)C[C@@H]1NC(=O)[C@@H](CC(C)C)NC(=O)[C@H](CC(=O)O)NC(=O)[C@@H]2C[C@@H](O)CN2C(=O)[C@@H](CC(=O)O)NC(=O)[C@@H](Cc2c[nH]c3ccccc23)NC1=O [Example 14, cyclo[-D-Asp-Hyp-Asp-D-Leu-Leu-D-Trp-]] (cyclo(D[dL]L[dW][dD][Hyp]))",160,120,70,–
"CC(C)C[C@@H]1NC(=O)[C@@H](CC(C)C)NC(=O)[C@H](CC(=O)O)NC(=O)[C@H](CC(=O)O)NC(=O)[C@@H](CC(=O)O)NC(=O)[C@@H](Cc2c[nH]c3ccccc23)NC1=O [Example 16, Cyclo[--D--Asp--Asp--Asp--D--Leu--Leu--D--Trp--]] (cyclo(DD[dL]L[dW][dD]))",14,34,10,–
"CC(C)C[C@@H]1NC(=O)[C@@H](CC(C)C)NC(=O)[C@H](CC(=O)O)NC(=O)[C@H](Cc2cccc3ccccc23)NC(=O)[C@@H](CC(=O)O)NC(=O)[C@@H](Cc2c[nH]c3ccccc23)NC1=O [Example 23, Cyclo[--D--Asp--Nal(1)--Asp--D--Leu--Leu--D--Trp--]] (cyclo([1Nal]D[dL]L[dW][dD]))",11,7.7,8.3,–
"CC(C)C[C@@H]1NC(=O)[C@@H](CC(C)C)NC(=O)[C@H](CC(=O)O)NC(=O)[C@@H]2CCN2C(=O)[C@@H](CC(=O)O)NC(=O)[C@@H](Cc2c[nH]c3ccccc23)NC1=O [Example 25, Cyclo[--D--Asp--Azc--Asp--D--Leu--Leu--D--Trp--]] (cyclo([Aze]D[dL]L[dW][dD]))",25,57,30,–
"CC(C)C[C@@H]1NC(=O)[C@@H](CC(C)C)NC(=O)[C@H](CC(=O)O)NC(=O)[C@@H]2CCCCN2C(=O)[C@@H](CC(=O)O)NC(=O)[C@@H](Cc2c[nH]c3ccccc23)NC1=O [Example 26, Cyclo[--D--Asp--Pip--Asp--D--Leu--Leu--D--Trp--]] (cyclo(D[dL]L[dW][dD][Pip]))",38,73,25,–
"CC(C)C[C@@H]1NC(=O)[C@@H](CC(C)C)NC(=O)[C@H](CCC(=O)O)NC(=O)[C@H](Cc2c[nH]c3ccccc23)NC(=O)[C@@H](CC(=O)O)NC(=O)[C@@H](Cc2c[nH]c3ccccc23)NC1=O [Example 34, Cyclo[--D--Asp--Trp--Glu--D--Leu--Leu--D--Trp--]] (cyclo(E[dL]L[dW][dD]W))",77,44,20,–
"CC(C)C[C@@H]1NC(=O)[C@H](Cc2c[nH]c3ccccc23)NC(=O)[C@@H](CC(=O)O)NC(=O)[C@@H](Cc2c[nH]c3ccccc23)NC(=O)[C@H](CC(C)C)NC(=O)[C@@H](CC(C)C)NC1=O [Example 35, Cyclo[--D--Asp--Trp--Leu--D--Leu--Leu--D--Trp--]] (cyclo(L[dL]L[dW][dD]W))",52,24,9.1,–
"CC(C)C[C@@H]1NC(=O)[C@@H](CC(C)C)NC(=O)[C@@H]2CCCN2C(=O)[C@H](Cc2c[nH]c3ccccc23)NC(=O)[C@@H](CC(=O)O)NC(=O)[C@@H](Cc2c[nH]c3ccccc23)NC1=O [Example 36, Cyclo[--D--Asp--Trp--Pro--D--Leu--Leu--D--Trp--]] (cyclo(L[dW][dD]WP[dL]))",40,42,17,–
"CC[C@H](C)[C@H]1NC(=O)[C@H](C)NC(=O)[C@@H](CCC(=O)O)NC(=O)[C@@H](Cc2c[nH]c3ccccc23)NC(=O)[C@H](CC(C)C)NC1=O [cyclo[-D-Glu-Ala-D-aIle-Leu-D-Trp-], reference compound] (cyclo(A[d(aIle)]L[dW][dE]))",less than 1,–,1.0,5.70
